Reference: the NIST ThermoML archive (doi:10.1021/je060179e)
± gives the expanded uncertainty stated by the source.

Conditions: for mass density: 101.33 kPa, Liquid

surface tension liquid-gas (288.15 K)	mass density (288.15 K)	surface tension liquid-gas (293.15 K)	mass density (293.15 K)	surface tension liquid-gas (298.15 K)	mass density (298.15 K)	surface tension liquid-gas (303.15 K)	mass density (303.15 K)	surface tension liquid-gas (308.15 K)	mass density (308.15 K)	SMILES
27.41 ± 0.31 mN/m	828.55 ± 0.45 kg/m3	26.94 ± 0.31 mN/m	825.11 ± 0.45 kg/m3	26.52 ± 0.31 mN/m	821.64 ± 0.46 kg/m3	26.07 ± 0.3 mN/m	818.19 ± 0.46 kg/m3	25.52 ± 0.3 mN/m	814.69 ± 0.47 kg/m3	CCCCCCCCO [octan-1-ol]
24.68 ± 0.29 mN/m	813.32 ± 0.23 kg/m3	24.21 ± 0.29 mN/m	809.56 ± 0.23 kg/m3	23.79 ± 0.29 mN/m	805.72 ± 0.24 kg/m3	23.34 ± 0.28 mN/m	801.91 ± 0.24 kg/m3	22.79 ± 0.28 mN/m	798.07 ± 0.24 kg/m3	CCCCO [butan-1-ol]
26.08 ± 0.32 mN/m	822.28 ± 0.91 kg/m3	25.61 ± 0.32 mN/m	818.75 ± 0.92 kg/m3	25.19 ± 0.32 mN/m	815.23 ± 0.93 kg/m3	24.74 ± 0.32 mN/m	811.6 ± 0.94 kg/m3	24.19 ± 0.31 mN/m	808 ± 0.95 kg/m3	CCCCCCO [hexan-1-ol]
20.81 ± 0.27 mN/m	687.98 ± 0.65 kg/m3	20.27 ± 0.27 mN/m	683.78 ± 0.65 kg/m3	19.68 ± 0.27 mN/m	679.55 ± 0.66 kg/m3	19.19 ± 0.26 mN/m	675.3 ± 0.66 kg/m3	18.93 ± 0.26 mN/m	671 ± 0.67 kg/m3	CCCCCCC [heptane]
